According to patent publication US10098870B2 (JENKEM TECHNOLOGY CO., LTD. (BEIJING), priority 2013, dated 2018):
“And” between values parts separate entries of the source, which are not always exact repeats. Equal values may be shown once. “Also recorded” adds a separate entry of the source. Read-outs that look alike come from different tables or passages of the source.

Assays:
[1] = test system: H460 human non-small cell lung cancer cells; conditions: for T/C (%) RTV / T/C (%) TW: vs physiological saline; for RTV / Tumor weight: 29th day, Mean ± SEM; for Tumor volume: mean ± SE
Method: (§1) The tumor cells were passaged with digestion by trypsin-EDTA twice a week. The cells in the exponential growth phase were collected, counted, and used for inoculation.
(§2) 5.0×10^6 of H460 tumor cells were suspended in 0.1 ml of PBS, inoculated to each nude mouse at the right shoulder, and there were totally 34 mice inoculated. 8 days later the mean tumor volume was desired to reach about 143 mm^3, the mice with a smaller or larger tumor were removed and the remaining 24 mice were divided into groups randomly according to tumor volume and administrated.

[2] = Body weight, survival and tolerance of mice bearing H460 (Example 8); conditions: mean ± SE
Method: as §2

[3] = test system: human hepatoma cell plc/prf/5; assay: Anti-tumor effect on xenograft tumor model of plc/prf/5 in nude mice (Example 6); conditions: for T/C (%) RTV / T/C (%) TW: vs physiological saline; for RTV / Tumor weight: 38th day, Mean ± SEM; for Tumor volume: mean ± SE
From the text: as §1
10 days later the mean tumor volume was desired to reach about 161 mm^3, the mice with a smaller or larger tumor were removed and the remaining 24 mice were divided into groups randomly according to tumor volume and administrated.
Wherein QW×4W represents intravenous injection once a week for 4 weeks, BIW×4W represents intravenous injection once every two weeks for 4 weeks, the same below.

[4] = test system: human hepatoma cell Hep3B; assay: Anti-tumor effect on xenograft tumor model of Hep3B in immune deficiency mice (Example 7); conditions: for T/C (%) RTV / T/C (%) TW: vs physiological saline; for RTV / Tumor weight: 44th day, Mean ± SEM; for Tumor volume: mean ± SE
From the text: as §1

[5] = day 8 after inoculation, 30 mg/kg i.v. BIW×3W
[6] = day 8 after inoculation, 45 mg/kg i.v. QW×3W
[7] = day 12 after inoculation, 30 mg/kg i.v. BIW×3W
[8] = day 12 after inoculation, 45 mg/kg i.v. QW×3W
[9] = day 15 after inoculation, 30 mg/kg i.v. BIW×3W
[10] = day 15 after inoculation, 45 mg/kg i.v. QW×3W
[11] = day 19 after inoculation, 30 mg/kg i.v. BIW×3W
[12] = day 19 after inoculation, 45 mg/kg i.v. QW×3W
[13] = day 22 after inoculation, 30 mg/kg i.v. BIW×3W
[14] = day 22 after inoculation, 45 mg/kg i.v. QW×3W
[15] = day 26 after inoculation, 30 mg/kg i.v. BIW×3W
[16] = day 26 after inoculation, 45 mg/kg i.v. QW×3W
[17] = day 20 after inoculation, 30 mg/kg i.v. BIW×4W
[18] = day 20 after inoculation, 45 mg/kg i.v. QW×4W
[19] = day 27 after inoculation, 30 mg/kg i.v. BIW×4W
[20] = day 27 after inoculation, 45 mg/kg i.v. QW×4W
[21] = day 34 after inoculation, 30 mg/kg i.v. BIW×4W
[22] = day 34 after inoculation, 45 mg/kg i.v. QW×4W

Q: Which “TGD (to 1,000 mm^3)” value ([1]; 30 mg/kg i.v. BIW×3W) does the source give for “monomethoxy polyethylene glycol (20K)-glutamic acid dipeptide-rapamycin conjugate [LPR-2]” here?
A: >9

Q: And the “T/C (%) RTV” value ([1]; 30 mg/kg i.v. BIW×3W)?
A: 22%

Q: And the “T/C (%) TW” value ([1]; 30 mg/kg i.v. BIW×3W)?
A: 23%

Q: And the “TGD (to 1,000 mm^3)” value ([1]; 45 mg/kg i.v. QW×3W)?
A: >9

Q: And the “T/C (%) RTV” value ([1]; 45 mg/kg i.v. QW×3W)?
A: 25%

Q: What about the “T/C (%) TW” value ([1]; 45 mg/kg i.v. QW×3W) of the same substance?
A: 25%

Q: And the RTV ([1]; 30 mg/kg i.v. BIW×3W)?
A: 3.43 ± 0.32

Q: What about the Tumor weight ([1]; 30 mg/kg i.v. BIW×3W) of the same substance?
A: 364 ± 54 mg

Q: And the RTV ([1]; 45 mg/kg i.v. QW×3W)?
A: 3.86 ± 0.42

Q: What about the Tumor weight ([1]; 45 mg/kg i.v. QW×3W) of the same substance?
A: 406 ± 60 mg

Q: And the Tumor volume [1, 5]?
A: 143 ± 16 mm^3

Q: What about the Tumor volume [1, 6] of the same substance?
A: 143 ± 18 mm^3

Q: What about the Tumor volume [1, 7] of the same substance?
A: 213 ± 40 mm^3

Q: What about the Tumor volume [1, 8] of the same substance?
A: 194 ± 33 mm^3

Q: And the Tumor volume [1, 9]?
A: 208 ± 44 mm^3

Q: What about the Tumor volume [1, 10] of the same substance?
A: 260 ± 46 mm^3

Q: What about the Tumor volume [1, 11] of the same substance?
A: 259 ± 50 mm^3

Q: What about the Tumor volume [1, 12] of the same substance?
A: 282 ± 46 mm^3

Q: And the Tumor volume [1, 13]?
A: 343 ± 67 mm^3

Q: What about the Tumor volume [1, 14] of the same substance?
A: 346 ± 53 mm^3

Q: And the Tumor volume [1, 15]?
A: 459 ± 70 mm^3

Q: And the Tumor volume [1, 16]?
A: 468 ± 57 mm^3

Q: What about the Tumor volume ([1]; day 29 after inoculation, 30 mg/kg i.v. BIW×3W, 30 mg/kg) of the same substance?
A: 505 mm^3 and 505 ± 87 mm^3

Q: What about the Tumor volume ([1]; day 29 after inoculation, 45 mg/kg i.v. QW×3W, 45 mg/kg) of the same substance?
A: 549 mm^3 and 549 ± 76 mm^3

Q: What about the “Body weight of animal” value [2, 5] of the same substance?
A: 20.5 ± 0.5 g

Q: What about the “Body weight of animal” value [2, 6] of the same substance?
A: 20.2 ± 0.4 g

Q: And the “Body weight of animal” value [2, 7]?
A: 20.3 ± 0.5 g

Q: And the “Body weight of animal” value [2, 8]?
A: 19.8 ± 0.3 g

Q: What about the “Body weight of animal” value [2, 9] of the same substance?
A: 20.7 ± 0.4 g

Q: And the “Body weight of animal” value [2, 10]?
A: 20.9 ± 0.3 g

Q: And the “Body weight of animal” value [2, 11]?
A: 21.0 ± 0.5 g

Q: What about the “Body weight of animal” value [2, 12] of the same substance?
A: 20.7 ± 0.3 g

Q: What about the “Body weight of animal” value [2, 13] of the same substance?
A: 20.7 ± 0.4 g

Q: And the “Body weight of animal” value [2, 14]?
A: 20.4 ± 0.3 g

Q: And the “Body weight of animal” value [2, 15]?
A: 20.9 ± 0.5 g

Q: What about the “Body weight of animal” value [2, 16] of the same substance?
A: 21.4 ± 0.3 g

Q: What about the “Body weight of animal” value ([2]; day 29 after inoculation, 30 mg/kg i.v. BIW×3W) of the same substance?
A: 21.1 ± 0.4 g

Q: And the “Body weight of animal” value ([2]; day 29 after inoculation, 45 mg/kg i.v. QW×3W)?
A: 22.1 ± 0.3 g

Q: And the “TGD (to 1,000 mm^3)” value ([3]; 30 mg/kg i.v. BIW×4W)?
A: >12

Q: What about the “T/C (%) RTV” value ([3]; 30 mg/kg i.v. BIW×4W) of the same substance?
A: 29%

Q: And the “T/C (%) TW” value ([3]; 30 mg/kg i.v. BIW×4W)?
A: 27%

Q: And the “TGD (to 1,000 mm^3)” value ([3]; 45 mg/kg i.v. QW×4W)?
A: >12

Q: And the “T/C (%) RTV” value ([3]; 45 mg/kg i.v. QW×4W)?
A: 46%

Q: What about the “T/C (%) TW” value ([3]; 45 mg/kg i.v. QW×4W) of the same substance?
A: 45%

Q: And the “anti-tumor effect (in words)” value ([3]; 5-FU 25 mg/kg, LPR-2 30 and 45 mg/kg)?
A: significant anti-tumor effect

Q: What about the RTV ([3]; 30 mg/kg i.v. BIW×4W) of the same substance?
A: 3.48 ± 0.68

Q: And the Tumor weight ([3]; 30 mg/kg i.v. BIW×4W)?
A: 517 ± 67 mg

Q: What about the RTV ([3]; 45 mg/kg i.v. QW×4W) of the same substance?
A: 5.61 ± 0.67

Q: And the Tumor weight ([3]; 45 mg/kg i.v. QW×4W)?
A: 845 ± 87 mg

Q: What about the Tumor volume ([3]; day 10 after inoculation, 30 mg/kg i.v. BIW×4W) of the same substance?
A: 171 ± 15 mm^3

Q: What about the Tumor volume ([3]; day 10 after inoculation, 45 mg/kg i.v. QW×4W) of the same substance?
A: 171 ± 19 mm^3

Q: And the Tumor volume ([3]; day 13 after inoculation, 30 mg/kg i.v. BIW×4W)?
A: 176 ± 11 mm^3

Q: And the Tumor volume ([3]; day 13 after inoculation, 45 mg/kg i.v. QW×4W)?
A: 180 ± 25 mm^3

Q: What about the Tumor volume ([3]; day 17 after inoculation, 30 mg/kg i.v. BIW×4W) of the same substance?
A: 217 ± 25 mm^3

Q: What about the Tumor volume ([3]; day 17 after inoculation, 45 mg/kg i.v. QW×4W) of the same substance?
A: 234 ± 28 mm^3

Q: What about the Tumor volume [3, 17] of the same substance?
A: 260 ± 30 mm^3

Q: And the Tumor volume [3, 18]?
A: 257 ± 24 mm^3

Q: And the Tumor volume ([3]; day 24 after inoculation, 30 mg/kg i.v. BIW×4W)?
A: 303 ± 32 mm^3

Q: And the Tumor volume ([3]; day 24 after inoculation, 45 mg/kg i.v. QW×4W)?
A: 399 ± 25 mm^3

Q: What about the Tumor volume [3, 19] of the same substance?
A: 317 ± 42 mm^3

Q: What about the Tumor volume [3, 20] of the same substance?
A: 496 ± 39 mm^3

Q: What about the Tumor volume ([3]; day 31 after inoculation, 30 mg/kg i.v. BIW×4W) of the same substance?
A: 395 ± 39 mm^3

Q: And the Tumor volume ([3]; day 31 after inoculation, 45 mg/kg i.v. QW×4W)?
A: 607 ± 60 mm^3

Q: What about the Tumor volume [3, 21] of the same substance?
A: 437 ± 44 mm^3

Q: And the Tumor volume [3, 22]?
A: 640 ± 93 mm^3

Q: What about the Tumor volume ([3]; day 38 after inoculation, 30 mg/kg i.v. BIW×4W, 30 mg/kg) of the same substance?
A: 553 mm^3 and 553 ± 63 mm^3

Q: And the “TGD (to 1,000 mm^3)” value ([4]; 30 mg/kg i.v. BIW×4W)?
A: 17

Q: And the “T/C (%) RTV” value ([4]; 30 mg/kg i.v. BIW×4W)?
A: 54%

Q: What about the “T/C (%) TW” value ([4]; 30 mg/kg i.v. BIW×4W) of the same substance?
A: 46%

Q: And the “TGD (to 1,000 mm^3)” value ([4]; 45 mg/kg i.v. QW×4W)?
A: >17

Q: And the “T/C (%) RTV” value ([4]; 45 mg/kg i.v. QW×4W)?
A: 42%

Q: And the “T/C (%) TW” value ([4]; 45 mg/kg i.v. QW×4W)?
A: 40%

Q: And the “anti-tumor effect (in words)” value ([4]; 5-FU 15 mg/kg, LPR-2 30 and 45 mg/kg)?
A: slightly better than that of the 5-FU; also recorded: a common anti-tumor effect

Q: And the RTV ([4]; 30 mg/kg i.v. BIW×4W)?
A: 2.43 ± 0.19

Q: And the Tumor weight ([4]; 30 mg/kg i.v. BIW×4W)?
A: 720 ± 94 mg

Q: And the RTV ([4]; 45 mg/kg i.v. QW×4W)?
A: 1.85 ± 0.17

Q: And the Tumor weight ([4]; 45 mg/kg i.v. QW×4W)?
A: 625 ± 84 mg

Q: What about the Tumor volume ([4]; day 16 after inoculation, 30 mg/kg i.v. BIW×4W) of the same substance?
A: 454 ± 60 mm^3

Q: What about the Tumor volume ([4]; day 16 after inoculation, 45 mg/kg i.v. QW×4W) of the same substance?
A: 453 ± 56 mm^3

Q: And the Tumor volume [4, 17]?
A: 524 ± 47 mm^3

Q: What about the Tumor volume [4, 18] of the same substance?
A: 490 ± 73 mm^3

Q: And the Tumor volume ([4]; day 23 after inoculation, 30 mg/kg i.v. BIW×4W)?
A: 622 ± 37 mm^3

Q: And the Tumor volume ([4]; day 23 after inoculation, 45 mg/kg i.v. QW×4W)?
A: 549 ± 83 mm^3

Q: What about the Tumor volume [4, 19] of the same substance?
A: 643 ± 45 mm^3

Q: And the Tumor volume [4, 20]?
A: 589 ± 91 mm^3

Q: And the Tumor volume ([4]; day 30 after inoculation, 30 mg/kg i.v. BIW×4W)?
A: 689 ± 57 mm^3

Q: And the Tumor volume ([4]; day 30 after inoculation, 45 mg/kg i.v. QW×4W)?
A: 584 ± 87 mm^3

Q: What about the Tumor volume [4, 21] of the same substance?
A: 761 ± 82 mm^3

Q: And the Tumor volume [4, 22]?
A: 608 ± 89 mm^3

Q: What about the Tumor volume ([4]; day 37 after inoculation, 30 mg/kg i.v. BIW×4W) of the same substance?
A: 899 ± 97 mm^3

Q: What about the Tumor volume ([4]; day 37 after inoculation, 45 mg/kg i.v. QW×4W) of the same substance?
A: 699 ± 102 mm^3

Q: What about the Tumor volume ([4]; day 41 after inoculation, 30 mg/kg i.v. BIW×4W) of the same substance?
A: 995 ± 126 mm^3

Q: And the Tumor volume ([4]; day 41 after inoculation, 45 mg/kg i.v. QW×4W)?
A: 733 ± 93 mm^3
